From patent US20260248879A1, “METHODS OF USING A GCG/GLP1 CO-AGONIST FOR THERAPY” (ELI LILLY AND COMPANY, priority 2022, published 2026)

What was measured:
patients with T2DM = assay: Example 1 study: fasting pharmacodynamic markers (glucose, insulin, C-peptide, glucagon, lipids, HOMA indices); type: in vivo, human; details: for mean HOMA-B index: baseline 9.108
Experimental: Fasting plasma samples for glucose and insulin are explored as secondary PD markers. Exploratory PD may include, but are not limited to plasma glucagon, C-peptide, native OXM, lipid panel (triglycerides, total cholesterol, low-density lipoprotein cholesterol, and high-density lipoprotein cholesterol), beta cell function, and homeostatic model assessment (HOMA) indices.
Plasma concentrations of at least glucose, glucagon, insulin, C-peptide and native OXM, are assayed using validated analytical methods.
In respect of Cohort 1, PD sampling occurs at baseline and Days 1, 3 (48 hours post administration of Compound 1), 8, 22, 29, 50, 57, 78 and 80. […]

[1] = Example 1 study: pharmacokinetics, population PK modeling; details: for AUC(0-168)ss, geometric mean (CV %) / Cmax, ss, geometric mean: model-predicted steady state
Excerpt: Up to two samples may be collected at additional time points during the study if warranted and agreed upon between both the investigator and sponsor.
All available PK data is utilized for model development.

[2] = Cohort 1, escalated to 4.5 mg, Day 78 and Day 80
[3] = Cohort 1, escalated to 4.5 mg, Day 80
[4] = Cohort 2, escalated to 6.0 mg, Day 64
[5] = Cohort 2, escalated to 8.0 mg, Day 85
[6] = Cohort 2, escalated to 10.0 mg, Day 106 and Day 108
[7] = Cohort 2, escalated to 10.0 mg, Day 108

## CC(C)C[C@H](NC(=O)[C@H](CC(C)C)NC(=O)[C@H](Cc1c[nH]c2ccccc12)NC(=O)[C@H](CCC(=O)O)NC(=O)[C@@H](NC(=O)[C@H](Cc1ccccc1)NC(=O)[C@H](CCC(=O)O)NC(=O)[C@H](CCCCNC(=O)COCCOCCNC(=O)COCCOCCNC(=O)CC[C@H](NC(=O)CCCCCCCCCCCCCCCCCCC(=O)O)C(=O)O)NC(=O)[C@H](C)NC(=O)[C@H](CCCCN)NC(=O)[C@H](CCCCN)NC(=O)[C@H](CCC(=O)O)NC(=O)[C@H](CC(=O)O)NC(=O)[C@H](CC(C)C)NC(=O)[C@H](Cc1ccc(O)cc1)NC(=O)[C@H](CCCCN)NC(=O)[C@H](CO)NC(=O)[C@H](Cc1ccc(O)cc1)NC(=O)[C@H](CC(=O)O)NC(=O)[C@H](CO)NC(=O)[C@@H](NC(=O)[C@H](Cc1ccccc1)NC(=O)[C@@H](NC(=O)CNC(=O)[C@H](CCC(N)=O)NC(=O)C(C)(C)NC(=O)[C@@H](N)Cc1c[nH]cn1)[C@@H](C)O)[C@@H](C)O)C(C)C)C(=O)N[C@@H](CCC(=O)O)C(=O)NCC(=O)NCC(=O)N1CCC[C@H]1C(=O)N[C@@H](CO)C(=O)N[C@@H](CO)C(=O)NCC(N)=O [Compound 1]
Patients with T2DM; Cohort 1, escalated to 4.5 mg, Day 78, baseline 14.79 pmol/L
  mean fasting glucagon: 6.65 pmol/L
Patients with T2DM; Cohort 1, escalated to 4.5 mg, Day 78, baseline 667 pmol/L
  mean fasting C-peptide: 820 pmol/L
Patients with T2DM; Cohort 1, escalated to 4.5 mg, Day 78, baseline 2.938
  mean fasting triglyceride: 1.456 mmol/L
Patients with T2DM; Cohort 1, escalated to 4.5 mg, Day 78, baseline 4.704
  mean HOMA-IR index: 4.289
Patients with T2DM; Cohort 1, escalated to 4.5 mg, Day 78, baseline 5.065
  mean fasting total cholesterol: 4.275 mmol/L
Patients with T2DM; Cohort 1, escalated to 4.5 mg, Day 78, baseline 9.648
  mean fasting insulin: 13.362 mIU/L
Patients with T2DM; [2]
  approximate decrease of HOMA-IR from baseline: ~9%
  approximate decrease of fasting LDL cholesterol from baseline: ~10%
  approximate decrease of fasting glucagon from baseline: 45-55%
  approximate decrease of fasting total cholesterol from baseline: 12-16%
  approximate decrease of fasting triglyceride from baseline: 29-50%
  approximate increase of fasting C-peptide from baseline: 22-31%
  approximate increase of fasting insulin from baseline: 38-46%
Patients with T2DM; Cohort 1, escalated to 4.5 mg, Day 78 and Day 80, baseline 2.852
  mean fasting LDL cholesterol: 2.56 mmol/L
Patients with T2DM; [3]
  approximate increase of HOMA-B from baseline: ~145%
  approximate reduction of mean fasting glucose from baseline: ~40%
Patients with T2DM; Cohort 1, escalated to 4.5 mg, Day 80, baseline 14.79 pmol/L
  mean fasting glucagon: 8.19 pmol/L
Patients with T2DM; Cohort 1, escalated to 4.5 mg, Day 80, baseline 667 pmol/L
  mean fasting C-peptide: 875 pmol/L
Patients with T2DM; Cohort 1, escalated to 4.5 mg, Day 80, baseline 2.938
  mean fasting triglyceride: 2.084 mmol/L
Patients with T2DM; Cohort 1, escalated to 4.5 mg, Day 80, baseline 5.065
  mean fasting total cholesterol: 4.461 mmol/L
Patients with T2DM; Cohort 1, escalated to 4.5 mg, Day 80, baseline 9.648
  mean fasting insulin: 14.046 mIU/L
Patients with T2DM; Cohort 1, escalated to 4.5 mg, Day 80, baseline 10.78
  mean fasting glucose: 6.52 mmol/L
Patients with T2DM; Cohort 2, escalated to 6.0 mg
  approximate decrease of fasting glucagon from baseline: ~63%
  approximate increase of fasting C-peptide from baseline: ~12%
  approximate increase of fasting insulin from baseline: ~14%
Patients with T2DM; [4]
  approximate decrease of HOMA-IR from baseline: ~20%
  approximate decrease of fasting LDL cholesterol from baseline: ~29%
  approximate decrease of fasting total cholesterol from baseline: ~26%
  approximate decrease of fasting triglyceride from baseline: ~43%
  approximate increase of HOMA-B from baseline: ~76%
  mean HOMA-B index: 16.072
Patients with T2DM; Cohort 2, escalated to 6.0 mg, Day 64, baseline 1.867
  mean fasting triglyceride: 1.055 mmol/L
Patients with T2DM; Cohort 2, escalated to 6.0 mg, Day 64, baseline 2.7
  mean HOMA-IR index: 2.158
Patients with T2DM; Cohort 2, escalated to 6.0 mg, Day 64, baseline 2.796
  mean fasting LDL cholesterol: 1.997 mmol/L
Patients with T2DM; Cohort 2, escalated to 6.0 mg, Day 64, baseline 4.971
  mean fasting total cholesterol: 3.673 mmol/L
Patients with T2DM; Cohort 2, escalated to 6.0 mg, baseline 5.892
  mean fasting insulin: 6.73 mIU/L
Patients with T2DM; Cohort 2, escalated to 6.0 mg, baseline 9.83
  mean fasting glucagon: 3.65 pmol/L
Patients with T2DM; Cohort 2, escalated to 6.0 mg, baseline 532.8
  mean fasting C-peptide: 597 pmol/L
Patients with T2DM; Cohort 2, escalated to 8.0 mg
  approximate increase of fasting C-peptide from baseline: approximately 2%
  approximate increase of fasting insulin from baseline: ~12%
Patients with T2DM; Cohort 2, escalated to 8.0 mg, Day 80 (so in the source), baseline 9.83
  mean fasting glucagon: 2 pmol/L
Patients with T2DM; [5]
  approximate decrease of HOMA-IR from baseline: approximately 27%
  approximate decrease of fasting LDL cholesterol from baseline: approximately 30%
  approximate decrease of fasting total cholesterol from baseline: approximately 27%
  approximate decrease of fasting triglyceride from baseline: approximately 54%
  approximate increase of HOMA-B from baseline: approximately 83%
  mean HOMA-B index: 16.689
Patients with T2DM; Cohort 2, escalated to 8.0 mg, Day 85, baseline 1.867
  mean fasting triglyceride: 0.855 mmol/L
Patients with T2DM; Cohort 2, escalated to 8.0 mg, Day 85, baseline 2.7
  mean HOMA-IR index: 1.976
Patients with T2DM; Cohort 2, escalated to 8.0 mg, Day 85, baseline 2.796
  mean fasting LDL cholesterol: 1.954 mmol/L
Patients with T2DM; Cohort 2, escalated to 8.0 mg, Day 85, baseline 4.971
  mean fasting total cholesterol: 3.614 mmol/L
Patients with T2DM; Cohort 2, escalated to 8.0 mg, baseline 5.892
  mean fasting insulin: 6.589 mIU/L
Patients with T2DM; Cohort 2, escalated to 8.0 mg, baseline 532.8
  mean fasting C-peptide: 542 pmol/L
Patients with T2DM; Cohort 2, escalated to 10.0 mg
  approximate decrease of fasting C-peptide from baseline: ~18%
  approximate decrease of fasting insulin from baseline: ~20%
  approximate decrease of fasting total cholesterol from baseline: ~31%
Patients with T2DM; Cohort 2, escalated to 10.0 mg, Day 106, baseline 1.867
  mean fasting triglyceride: 0.86 mmol/L
Patients with T2DM; Cohort 2, escalated to 10.0 mg, Day 106, baseline 2.796
  mean fasting LDL cholesterol: 1.859 mmol/L
Patients with T2DM; Cohort 2, escalated to 10.0 mg, Day 106, baseline 4.971
  mean fasting total cholesterol: 3.454 mmol/L
Patients with T2DM; Cohort 2, escalated to 10.0 mg, Day 106, baseline 5.892
  mean fasting insulin: 5.355 mIU/L
Patients with T2DM; Cohort 2, escalated to 10.0 mg, Day 106, baseline 9.83
  mean fasting glucagon: 1.98 pmol/L
Patients with T2DM; Cohort 2, escalated to 10.0 mg, Day 106, baseline 532.8
  mean fasting C-peptide: 511 pmol/L
Patients with T2DM; [6]
  approximate decrease of fasting LDL cholesterol from baseline: 33-34%
  approximate decrease of fasting triglyceride from baseline: 47-54%
Patients with T2DM; [7]
  approximate decrease of HOMA-IR from baseline: ~51%
  approximate increase of HOMA-B from baseline: ~33%
  approximate reduction of mean fasting glucose from baseline: ~43%
Patients with T2DM; Cohort 2, escalated to 10.0 mg, Day 108, baseline 1.867
  mean fasting triglyceride: 0.985 mmol/L
Patients with T2DM; Cohort 2, escalated to 10.0 mg, Day 108, baseline 2.796
  mean fasting LDL cholesterol: 1.849 mmol/L
Patients with T2DM; Cohort 2, escalated to 10.0 mg, Day 108, baseline 4.971
  mean fasting total cholesterol: 3.441 mmol/L
Patients with T2DM; Cohort 2, escalated to 10.0 mg, Day 108, baseline 5.892
  mean fasting insulin: 4.74 mIU/L
Patients with T2DM; Cohort 2, escalated to 10.0 mg, Day 108, baseline 9.83
  mean fasting glucagon: 1.93 pmol/L
Patients with T2DM; Cohort 2, escalated to 10.0 mg, Day 108, baseline 10.46
  mean fasting glucose: 5.91 mmol/L
Patients with T2DM; Cohort 2, escalated to 10.0 mg, Day 108, baseline 532.8
  mean fasting C-peptide: 435 pmol/L
Patients with T2DM; Cohort 2, over the dosing period (FIG. 7c)
  mean fasting HDL levels: decreased from baseline
Patients with T2DM; dose 8.0 mg or higher
  reduction of fasting LDL cholesterol: ≥ 30%
Patients with T2DM; dose 10 mg or greater
  reduction of fasting insulin resistance indices: 50%
Patients with T2DM; dose greater than 6.0 mg
  reduction of fasting insulin resistance indices: greater than 25%
  reduction of fasting plasma glucagon: approximately 80%
  reduction of fasting triglyceride: ≥ 50%
Patients with T2DM; dose greater than 8.0 mg
  reduction of fasting total cholesterol: more than 30%
[1]; human, plasma, sc
  Vd/F: 9.52 L
[1]; 4.5 mg QW
  AUC(0-168)ss, geometric mean (CV %): 106000 (22.5%) ng · h/mL
  Cmax, ss, geometric mean: 698 ng/mL
[1]; 10 mg QW
  AUC(0-168)ss, geometric mean (CV %): 239000 (23.9%) ng · h/mL
  Cmax, ss, geometric mean: 1570 ng/mL
[1]; population PK model, 355 concentrations from 18 patients, SC QW
  Absorption rate constant, KA, population mean estimate: 0.0299 h⁻¹
